Converted amounts (≈) assume the structure as drawn. “And” between values parts separate entries of the source, which are not always exact repeats. Equal values may be shown once.
What was measured:
[1] = ref [40], cited from earlier work
physchem [2] = conditions: 25 °C, aqueous with cosolvent or surfactant or cyclodextrin, thermodynamic from solid
physchem [3] = conditions: 25 °C, water, thermodynamic from solid
[4] = Phase solubility studies: comparison of the six PAHs across the three CDs; conditions: for Decreasing order of Se and Kc: per CD; for Decreasing order of PAHs apparent solubility: reached with 0.1 M of the CD
[5] = PAHs aqueous solubility in the absence of CD; conditions: 25 °C, water, thermodynamic from solid
[6] = Phase solubility studies (Higuchi and Connors) with RAMEB; conditions: for Apparent stability constant Kc: RAMEB 0 to 0.1 M, 1:1 complex, 25°C; for solubility at 1 week: 25 °C, aqueous with cosolvent or surfactant or cyclodextrin, thermodynamic from solid
[7] = Phase solubility studies (Higuchi and Connors) with HP-β-CD; conditions: for Apparent stability constant Kc: HP-β-CD 0 to 0.1 M, 1:1 complex, 25°C
[8] = Phase solubility studies (Higuchi and Connors) with HP-γ-CD; conditions: HP-γ-CD 0 to 0.1 M; 1:1 complex; 25°C
[9] = 1 week

Decreasing order of Se and Kc [4] | Compound | solubility at 1 week [5] [µg/mL] | Apparent stability constant Kc [6] | Apparent stability constant Kc [7] | Apparent stability constant Kc [8] | other results
 | c1cc2ccc3cccc4ccc(c1)c2c34 [PYR, pyrene] |  |  |  |  | Kc with natural γ-CD ([1]; natural γ-CD, [41]): 250 to 300 M⁻¹
 | c1ccc2c(c1)-c1cccc3cccc-2c13 [FLT, fluoranthene] |  |  |  |  | solubility (physchem [2]): ≤ 101 µg/mL; solubility (physchem [3]): 0.26 µg/mL (≈ 1.29 µM)
PHE>ANT>FLT>FLU>PYR>ACE | 2-Hydroxypropyl-β-CD [HP-β-CD] |  |  |  |  | Decreasing order of PAHs apparent solubility [4]: PHE≥FLU>ACE>FLT>ANT>PYR
 | c1cc2c3c(cccc3c1)CC2 [ACE, acenaphthene] | 1.93 (≈ 12.5 µM) | 644 (±12) M^−1 | 661 (±35) M^−1 | 758 (±41) M^−1 | solubility at 1 week ([4]; 25 °C, aqueous with cosolvent or surfactant or cyclodextrin, thermodynamic from solid): 125 to 147 µg/mL (≈ 811 to 953 µM)
 | c1ccc2c(c1)Cc1ccccc1-2 [FLU, fluorene] |  | 2906 (±164) M^−1 |  |  | PAHs aqueous solubility (S) [9]: 1.90 µg/mL; solubility at 1 week ([6]; aqueous RAMEB solution): ≤ 574 µg/mL
 | c1ccc2cc3ccccc3cc2c1 [ANT, anthracene] | 0.076 (≈ 0.426 µM) | 5399 (±52) M^−1 | 3284 (±204) M^−1 | 234 M^−1 and 234 (±35) M^−1 | Kc with γ-CD ([1]; γ-CD, [42]): 240 to 330 M⁻¹; solubility at 1 week [6]: ≤ 41 µg/mL; Kc value relative to the lowest one (PYR) ([6]; RAMEB complexes): about 10 fold
PYR>ACE>FLT>PHE>ANT>FLU | hydroxypropyl-γ-CD [HP-γ-CD] |  |  |  |  | 
 | c1ccc2c(c1)ccc1ccccc12 [PHE, phenanthrene] | 1.2 (≈ 6.73 µM) | 4925 (±511) M^−1 | 3871 (±322) M^−1 | 447 (±17) M^−1 | solubility at 1 week ([6]; aqueous RAMEB solution): ≤ 572 µg/mL; Kc value relative to that for ACE ([7]; HP-β-CD complexes): ~6 fold
ANT>PHE>FLT>FLU>ACE>PYR | randomly methylated-β-CD [RAMEB] |  |  |  |  | Decreasing order of PAHs apparent solubility [4]: FLU≥PHE>ACE>FLT>ANT>PYR

Source: article PMC3446921, “Enhanced Solubilisation of Six PAHs by Three Synthetic Cyclodextrins for Remediation Applications: Molecular Modelling of the Inclusion Complexes” (PLoS ONE, 2012)
